# Source: patent US20260297035A1, “PROTEIN KINASE INHIBITORS AND USES THEREOF” (DELiver Therapeutics, Inc., priority 2023, published 2026)
# Read-outs that look alike come from different tables or passages of the source.
# What was measured:
# ABL1 T315I = biological target: T1, ABL1 T315I (Homo sapiens, UniProt P00519, T315I); experiment: Z′-LYTE assay, ABL1 T315I; type: biochemical
# T1 construct: The ABL1 variant polypeptides utilized contained the same polypeptide as the “isoahABL1(wt)” polypeptide except that each contained one corresponding amino acid substitution
# Source text: This Example describes a cell-free assay utilized to identify candidate compounds that bind to and inhibit protein kinase (PK) and PK variants. One assay is referred to as a “Z′-LYTE assay” and is an example of a labeled peptide cleavage assay. The fluorescence-based assay relies on the differential sensitivity of a small, dual-end-labelled peptide to cleavage by a protease, dependent on the phosphorylation state of the peptide (FIG. 1). The peptide substrate is end-labelled with two distinct fluorophores that comprise a Fluorescence Resonance Energy Transfer (FRET) pair.
# In the absence of inhibitor, the kinase transfers the gamma-phosphate from ATP to the single, unique tyrosine, serine or threonine in the synthetic FRET peptide. The reaction conditions are titrated such that 10-40% of the peptide substrate is phosphorylated. In a second reaction, a site-specific protease that only recognizes and cleaves the non-phosphorylated FRET peptide is added. Cleavage interferes with FRET between the donor (i.e., coumarin) and the acceptor (i.e., fluorescein) fluorophores on the FRET-peptide substrate, unlike the phosphorylated, uncleaved peptide.
# The Test Compounds are screened in 1% DMSO (final) in the well.
# All Peptide/Kinase Mixtures are diluted to a 2× working concentration in the appropriate Kinase Buffer. The 2×ABL1 polypeptide/Tyr 02 substrate peptide mixture is prepared in 50 mM HEPES pH 7.5, 0.01% BRIJ-35, 10 mM MgCl2, 1 mM EGTA. The final 10 μL Kinase Reaction contains 0.3-1.2 ng ABL1 (or 1.36-6 ng ABL1(T315I)) and 2 μM Tyr 02 in 50 mM HEPES, pH 7.5, 0.01% BRIJ-35, 10 mM MgCl2, 1 mM EGTA. After the 1-hour Kinase Reaction incubation, 5 μL of a 1:128 dilution of Development Reagent A is added. The ABL1(wt) polypeptide utilized for the assay described in this Example was the “isoahABL1(wt)” polypeptide described herein (SEQ ID NO:4), which is referred to as “ABL1” in Table 1 and “ABL1(wt)” or “WT” in Table 3 of this Example. The ABL1 variant polypeptides utilized contained the same polypeptide as the “isoahABL1(wt)” polypeptide except that each contained one corresponding amino acid substitution chosen from E255K, F317I, F317L, G250E, T315I or Y253F. […]
# All ATP Solutions are diluted to a 4× working concentration in Kinase Buffer (50 mM HEPES, pH 7.5, 0.01% BRIJ-35, 10 mM MgCl2, 1 mM EGTA). The ATP Km apparent (Km app) is previously determined using a Z′-LYTE assay.
# Bar-coded Corning, low volume NBS, black 384-well plate (Corning Cat. #4514) • 1. […] Read on fluorescence plate reader and analyze the data
# [1] = non-GLP multi-dose toxicity study (dose escalation, daily IP injection); type: in vivo, mouse (6-week-old Balb/c females); settings: mice
# Method: An initial non-GLP multi-dose toxicity study of Cmpd11 and Cmpd66 was performed, which included a comparison to COM1 and COM3 clinical compounds. […] Body weights were recorded 2× weekly for healthy mice followed by weekly in the recovery phase. Blood draws were taken, retro-orbitally, every other week (for a total of three blood draws per group) to determine the plasma levels of compounds throughout the duration of the study (unless mice were euthanized prior to completion of the 28-day dosing period). […] Any animals showing more than 9% weight loss were weighed every day and animals were euthanized after a weight loss of 15% or more or evidence of high distress (e.g., listless, hunched posture, high grimace score). Also, plasma samples were drawn at euthanasia. Control groups included vehicle only and no manipulation.
# A summary of the study is illustrated in FIG. 14. There are six groups with 90 mice total and following is an overview of groups for the study.
# The following are criteria for dose escalation and staggering of group starting points. Animals in each group are monitored after the initial dose for 3-4 days, and if there is no observed dose-limiting toxicity (DLT), then a separate cohort of naïve animals are administered the next higher dose level. Note that each cohort of animals receives the same drug and drug dose for the duration of the 28-day dosing period unless euthanasia is required. Animals in the second, dose-escalated group, are then monitored for 3-4 days, and if there is no observed DLT, animals from a fresh cohort are administered the next higher dose level, while continuing with the former cohorts up to 5 dose levels total. Animals in each cohort then are monitored after the third dose for 7 days, and if there is no observed DLT, then animals are administered the next higher doses. If DLT is observed during a monitoring period for any dose level, a subsequent dose is reduced by a level that is intermediate between the highest tolerated level tested and the minimum toxic level tested.
structure (smiles),measurement,setting,value
"Cc1ccc(Nc2ncc3cccc(-c4ccc(F)cc4OC(C)C)c3n2)cc1NC(=O)c1ccc(C(=O)N(C)C)cc1 [Cmpd11, N1-(5-((8-(4-fluoro-2-isopropoxyphenyl)quinazolin-2-yl)amino)-2-methylphenyl)-N4,N4-dimethylterephthalamide]",IC50,"ABL1 T315I; class by IC50 values in Table 5, read-out: inhibitor class of ABL(T315I) according to IC50",< 20 nM
same,IC50,"ABL1 T315I; test compounds, Z′-LYTE, read-out: IC50 values for test compounds, ABL1(T315I)",1.89 nM
same,tolerability relative to COM1,"[1]; at doses required to reach the in vitro K562-Luc EC50 plasma levels in vivo, early results",more tolerable than COM1
same,tolerability,"[1]; daily IP, 1.5 mg/kg, through day 24",well tolerated
same,tolerability,"[1]; daily IP, 4.5 mg/kg, through day 14",well tolerated
same,mortality at 168 h,"[1]; mouse, in vivo, daily IP, 18 mg/kg (12X EC50), by day 7, read-out: expiration of animals (2 out of 5)",40%
